Our source for the % of inhibition, % of control and % binding values is ChEMBL document CHEMBL5465560, “Selectivity Literature for EUbOPEN Chemogenomic Library” (2024).

Test [1] concerns the target T1, Serine/threonine-protein kinase greatwall (Homo sapiens) (UniProt Q96GX5).
T1 sequence (whole entry): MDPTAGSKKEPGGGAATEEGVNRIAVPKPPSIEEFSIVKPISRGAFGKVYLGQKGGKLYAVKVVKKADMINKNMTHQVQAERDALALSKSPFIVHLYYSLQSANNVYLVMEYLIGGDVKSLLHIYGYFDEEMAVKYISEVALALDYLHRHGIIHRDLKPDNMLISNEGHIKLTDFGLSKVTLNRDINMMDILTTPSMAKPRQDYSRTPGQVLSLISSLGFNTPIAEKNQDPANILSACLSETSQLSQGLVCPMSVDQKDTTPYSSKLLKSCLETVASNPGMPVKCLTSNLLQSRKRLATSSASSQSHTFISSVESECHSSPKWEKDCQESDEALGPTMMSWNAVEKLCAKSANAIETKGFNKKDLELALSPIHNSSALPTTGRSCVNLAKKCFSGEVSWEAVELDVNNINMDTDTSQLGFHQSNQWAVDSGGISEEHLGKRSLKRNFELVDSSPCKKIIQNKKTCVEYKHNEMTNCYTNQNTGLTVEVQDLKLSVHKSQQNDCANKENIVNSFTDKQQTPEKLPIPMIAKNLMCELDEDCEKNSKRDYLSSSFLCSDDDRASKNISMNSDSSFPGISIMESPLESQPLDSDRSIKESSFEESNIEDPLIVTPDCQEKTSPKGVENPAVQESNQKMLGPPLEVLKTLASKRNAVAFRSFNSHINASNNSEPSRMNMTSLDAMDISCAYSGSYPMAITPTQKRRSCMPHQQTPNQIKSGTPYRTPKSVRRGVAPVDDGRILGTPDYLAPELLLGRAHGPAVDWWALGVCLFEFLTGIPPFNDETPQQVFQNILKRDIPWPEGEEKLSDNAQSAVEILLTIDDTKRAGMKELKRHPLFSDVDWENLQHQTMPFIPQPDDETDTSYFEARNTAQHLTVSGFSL
Briefly: Selectivity interaction (LanthaScreen Eu Kinase Binding Assay) EUB0001632a MASTL. To be noted: at 10 µM. (In general: Time-resolved FRET reads energy transfer from a long-lived donor to a nearby acceptor.)

The target of test [2] is Cyclin-dependent kinase 2 (Homo sapiens, UniProt P24941). Description: Selectivity interaction (KinomeScan (DiscoverX)) EUB0000666a CDK2. The following applies: at 10 µM.
The target in test [3] is Casein kinase I isoform alpha (Homo sapiens, UniProt P48729). Briefly: Selectivity interaction (SelectScreen profiling (Invitrogen)) EUB0000607a CSNK1A1. To be noted: at 2 µM.
Test [4] concerns the target Ribosomal protein S6 kinase alpha-5 (Homo sapiens) (UniProt O75582). Briefly: Selectivity interaction (SelectScreen profiling (Invitrogen)) EUB0000607a RPS6KA5. The following applies: at 2 µM.
The target is the same in test [5]. Briefly: Selectivity interaction (ActivX KiNativ screen (kinase selectivity in THP-1 cell lysates)) EUB0000639a RPS6KA5. Type of test: subcellular. The following applies: lysate.
The target of test [6] is T2, Mitogen-activated protein kinase kinase kinase kinase 2 (Homo sapiens) (UniProt Q12851).
T2 sequence (whole entry): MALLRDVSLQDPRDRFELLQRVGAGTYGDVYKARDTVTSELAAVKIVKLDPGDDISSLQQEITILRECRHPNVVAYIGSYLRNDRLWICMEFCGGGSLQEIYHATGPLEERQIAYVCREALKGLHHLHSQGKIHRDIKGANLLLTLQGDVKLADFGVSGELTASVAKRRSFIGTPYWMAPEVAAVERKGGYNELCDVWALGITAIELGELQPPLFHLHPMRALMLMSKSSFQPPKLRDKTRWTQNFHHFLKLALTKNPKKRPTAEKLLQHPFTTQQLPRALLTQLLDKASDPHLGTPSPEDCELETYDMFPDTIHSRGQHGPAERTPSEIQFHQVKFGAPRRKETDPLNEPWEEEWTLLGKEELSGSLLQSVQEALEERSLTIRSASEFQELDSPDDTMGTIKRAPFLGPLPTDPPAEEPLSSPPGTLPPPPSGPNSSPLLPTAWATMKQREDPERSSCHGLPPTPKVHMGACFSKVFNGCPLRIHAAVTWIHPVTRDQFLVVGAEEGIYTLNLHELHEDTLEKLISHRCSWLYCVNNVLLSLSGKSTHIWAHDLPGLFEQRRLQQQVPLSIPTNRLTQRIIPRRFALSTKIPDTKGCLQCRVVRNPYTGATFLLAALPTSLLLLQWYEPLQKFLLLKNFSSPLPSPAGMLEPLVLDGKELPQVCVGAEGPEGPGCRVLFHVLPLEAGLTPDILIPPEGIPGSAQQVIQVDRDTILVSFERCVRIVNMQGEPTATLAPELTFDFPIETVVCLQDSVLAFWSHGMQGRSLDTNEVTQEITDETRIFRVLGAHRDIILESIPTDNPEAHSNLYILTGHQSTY
Description: Selectivity interaction (KinomeScan (DiscoverX)) EUB0000092b MAP4K2. The following applies: at 10 µM.

Test [7] has as its target Homeodomain-interacting protein kinase 1 (Homo sapiens, UniProt Q86Z02). Briefly: Selectivity interaction (KinomeScan (DiscoverX)) EUB0001079a HIPK1. The following applies: at 1 µM.
The target in test [8] is T3, Megakaryocyte-associated tyrosine-protein kinase (Homo sapiens) (UniProt P42679).
T3 sequence (whole entry): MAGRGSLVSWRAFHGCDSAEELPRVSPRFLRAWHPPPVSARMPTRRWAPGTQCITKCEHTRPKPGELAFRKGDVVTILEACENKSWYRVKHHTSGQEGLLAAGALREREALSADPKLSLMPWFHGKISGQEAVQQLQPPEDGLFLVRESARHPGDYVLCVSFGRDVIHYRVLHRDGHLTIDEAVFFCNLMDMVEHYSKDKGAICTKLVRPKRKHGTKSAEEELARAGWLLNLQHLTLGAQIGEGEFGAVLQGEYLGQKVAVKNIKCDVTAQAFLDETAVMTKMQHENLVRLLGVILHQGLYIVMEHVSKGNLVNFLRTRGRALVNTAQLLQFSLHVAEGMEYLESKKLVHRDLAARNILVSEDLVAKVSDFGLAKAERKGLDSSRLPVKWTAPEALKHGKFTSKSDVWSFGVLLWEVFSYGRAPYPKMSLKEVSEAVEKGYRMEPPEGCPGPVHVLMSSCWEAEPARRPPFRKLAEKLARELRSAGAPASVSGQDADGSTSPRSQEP
Description: Selectivity interaction (KinomeScan (DiscoverX)) EUB0001079a MATK. To be noted: at 1 µM.

Test [9] addresses Rho-associated protein kinase 1 (Homo sapiens) (UniProt Q13464). Description: Selectivity interaction (KinomeScan (DiscoverX)) EUB0000229b ROCK1. To be noted: at 10 µM.

SMILES strings stand for the structures.

Chain of Ribosomal protein S6 kinase alpha-5 (Homo sapiens) (O75582 whole entry, looked up): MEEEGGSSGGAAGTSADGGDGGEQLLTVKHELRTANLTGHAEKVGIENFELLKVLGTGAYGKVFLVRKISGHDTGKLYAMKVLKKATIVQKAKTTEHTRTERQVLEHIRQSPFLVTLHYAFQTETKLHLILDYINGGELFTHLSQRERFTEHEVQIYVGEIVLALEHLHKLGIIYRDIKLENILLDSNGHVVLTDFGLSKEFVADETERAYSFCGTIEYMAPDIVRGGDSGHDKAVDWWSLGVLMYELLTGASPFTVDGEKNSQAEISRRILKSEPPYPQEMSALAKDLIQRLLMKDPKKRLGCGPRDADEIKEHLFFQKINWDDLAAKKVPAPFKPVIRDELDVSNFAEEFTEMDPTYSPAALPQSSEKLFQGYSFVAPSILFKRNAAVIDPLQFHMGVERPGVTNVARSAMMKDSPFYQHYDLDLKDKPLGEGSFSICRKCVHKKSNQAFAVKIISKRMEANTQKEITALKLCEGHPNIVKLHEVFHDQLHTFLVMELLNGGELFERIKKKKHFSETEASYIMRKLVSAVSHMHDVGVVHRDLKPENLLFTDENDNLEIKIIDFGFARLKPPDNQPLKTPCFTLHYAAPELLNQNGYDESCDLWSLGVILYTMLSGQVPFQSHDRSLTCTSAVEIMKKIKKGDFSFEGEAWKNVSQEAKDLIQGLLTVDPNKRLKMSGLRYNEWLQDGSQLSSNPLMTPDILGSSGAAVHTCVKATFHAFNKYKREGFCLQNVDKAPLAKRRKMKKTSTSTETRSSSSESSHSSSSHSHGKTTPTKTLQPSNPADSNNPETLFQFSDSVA
Chain of Casein kinase I isoform alpha (P48729 2-337 limits assumed): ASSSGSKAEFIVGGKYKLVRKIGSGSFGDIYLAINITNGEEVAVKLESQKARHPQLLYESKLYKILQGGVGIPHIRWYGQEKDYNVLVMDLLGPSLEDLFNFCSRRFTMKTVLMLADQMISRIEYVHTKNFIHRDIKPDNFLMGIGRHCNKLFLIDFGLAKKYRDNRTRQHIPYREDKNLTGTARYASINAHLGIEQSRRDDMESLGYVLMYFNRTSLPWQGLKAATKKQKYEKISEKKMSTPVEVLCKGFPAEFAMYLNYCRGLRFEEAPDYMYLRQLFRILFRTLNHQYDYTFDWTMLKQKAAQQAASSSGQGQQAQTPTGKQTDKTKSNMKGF
Chain of Rho-associated protein kinase 1 (Homo sapiens) (Q13464 2-1354 limits assumed): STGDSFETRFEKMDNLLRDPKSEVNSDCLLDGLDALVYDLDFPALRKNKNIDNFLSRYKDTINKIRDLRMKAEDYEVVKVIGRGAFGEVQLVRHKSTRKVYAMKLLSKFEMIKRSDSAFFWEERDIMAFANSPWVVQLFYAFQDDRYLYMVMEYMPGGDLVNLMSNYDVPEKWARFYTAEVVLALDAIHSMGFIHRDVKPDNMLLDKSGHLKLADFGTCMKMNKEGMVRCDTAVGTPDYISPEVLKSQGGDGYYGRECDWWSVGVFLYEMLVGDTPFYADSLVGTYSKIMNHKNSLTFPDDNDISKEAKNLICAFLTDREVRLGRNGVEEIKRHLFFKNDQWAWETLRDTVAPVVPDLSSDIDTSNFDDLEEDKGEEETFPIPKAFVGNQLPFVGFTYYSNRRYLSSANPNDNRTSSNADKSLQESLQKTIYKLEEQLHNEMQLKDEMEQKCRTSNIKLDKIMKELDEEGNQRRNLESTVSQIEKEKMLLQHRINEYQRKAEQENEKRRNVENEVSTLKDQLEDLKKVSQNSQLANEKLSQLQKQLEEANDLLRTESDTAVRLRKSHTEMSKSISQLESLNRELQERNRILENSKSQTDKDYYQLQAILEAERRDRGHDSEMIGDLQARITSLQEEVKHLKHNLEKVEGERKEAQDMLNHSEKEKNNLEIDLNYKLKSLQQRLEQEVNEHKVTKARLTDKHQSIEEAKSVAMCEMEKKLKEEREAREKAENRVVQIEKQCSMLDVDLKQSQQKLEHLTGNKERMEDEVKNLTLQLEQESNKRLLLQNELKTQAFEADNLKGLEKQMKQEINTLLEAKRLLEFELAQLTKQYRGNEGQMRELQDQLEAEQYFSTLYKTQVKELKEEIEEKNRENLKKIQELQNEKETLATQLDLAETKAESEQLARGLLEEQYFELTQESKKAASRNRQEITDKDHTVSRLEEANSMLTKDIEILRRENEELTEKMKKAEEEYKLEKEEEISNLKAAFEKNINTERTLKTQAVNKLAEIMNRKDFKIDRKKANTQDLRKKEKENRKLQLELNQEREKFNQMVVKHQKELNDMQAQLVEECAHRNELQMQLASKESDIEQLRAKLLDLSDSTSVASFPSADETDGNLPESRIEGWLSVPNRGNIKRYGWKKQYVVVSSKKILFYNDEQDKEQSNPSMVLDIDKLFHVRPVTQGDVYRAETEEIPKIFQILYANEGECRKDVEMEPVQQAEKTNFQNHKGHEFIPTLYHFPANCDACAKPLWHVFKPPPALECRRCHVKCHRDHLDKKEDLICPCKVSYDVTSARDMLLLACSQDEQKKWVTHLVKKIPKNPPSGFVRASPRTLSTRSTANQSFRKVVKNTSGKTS
Chain of Homeodomain-interacting protein kinase 1 (Q86Z02 whole entry, looked up): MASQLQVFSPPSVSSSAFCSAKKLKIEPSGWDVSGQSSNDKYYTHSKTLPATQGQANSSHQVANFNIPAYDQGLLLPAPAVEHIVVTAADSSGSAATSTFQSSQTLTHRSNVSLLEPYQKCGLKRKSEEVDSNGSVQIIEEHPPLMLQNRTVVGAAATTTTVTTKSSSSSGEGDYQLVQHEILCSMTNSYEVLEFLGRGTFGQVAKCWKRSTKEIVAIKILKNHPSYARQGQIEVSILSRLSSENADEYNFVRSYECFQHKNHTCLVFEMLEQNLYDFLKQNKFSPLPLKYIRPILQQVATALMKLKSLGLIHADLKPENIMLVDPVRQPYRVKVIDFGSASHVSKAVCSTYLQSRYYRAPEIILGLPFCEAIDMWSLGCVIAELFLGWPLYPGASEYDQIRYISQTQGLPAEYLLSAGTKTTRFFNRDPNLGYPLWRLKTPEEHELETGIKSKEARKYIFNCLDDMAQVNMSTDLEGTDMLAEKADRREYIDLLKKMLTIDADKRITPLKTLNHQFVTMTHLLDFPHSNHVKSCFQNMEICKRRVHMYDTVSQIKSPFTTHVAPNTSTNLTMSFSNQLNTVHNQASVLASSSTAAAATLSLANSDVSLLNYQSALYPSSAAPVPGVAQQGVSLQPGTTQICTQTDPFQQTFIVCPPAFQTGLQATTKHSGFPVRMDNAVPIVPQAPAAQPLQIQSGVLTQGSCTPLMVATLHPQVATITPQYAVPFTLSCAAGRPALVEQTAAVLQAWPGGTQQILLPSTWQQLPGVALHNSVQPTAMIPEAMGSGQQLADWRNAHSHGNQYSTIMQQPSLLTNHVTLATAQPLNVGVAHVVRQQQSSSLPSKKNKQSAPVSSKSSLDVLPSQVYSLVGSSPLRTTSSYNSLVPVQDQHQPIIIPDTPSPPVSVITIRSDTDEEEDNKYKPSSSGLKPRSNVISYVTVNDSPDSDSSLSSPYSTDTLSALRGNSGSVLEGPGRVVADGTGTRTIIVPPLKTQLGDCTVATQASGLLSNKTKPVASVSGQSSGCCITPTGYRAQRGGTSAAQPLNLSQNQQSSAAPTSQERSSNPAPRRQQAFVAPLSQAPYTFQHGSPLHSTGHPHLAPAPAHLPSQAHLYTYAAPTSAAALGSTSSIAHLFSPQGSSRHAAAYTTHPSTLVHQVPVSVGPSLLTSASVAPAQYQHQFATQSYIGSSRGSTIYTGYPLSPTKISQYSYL

`Cn1cc(-n2cnc3c(NCc4nc5cc(Cl)c(Cl)cc5[nH]4)nc(N4CCOCC4)nc32)cn1`: in test [1], the % of inhibition was -42%.

In the case of `O=C(NOC[C@H](O)CO)c1ccc(F)c(F)c1Nc1ccc(I)cc1F`, the % of control in test [2] amounted to 91%.

Take `CNC(=O)Nc1ccc(-c2nc(N3CC4CCC(C3)O4)c3cnn(C4CCC5(CC4)OCCO5)c3n2)cc1`: the % of inhibition in test [3] stood at 2%; in test [4] it was 1%.

Take `CC[C@@H]1[C@H](F)C(=O)N[C@@H]1COc1nccc2cc(C(N)=O)c(OC)cc12` [ZIMLOVISERTIB]: the % of inhibition in test [5] (at 0.01 µM) was 2.2%; in test [5] (at 0.04 µM), -1%; in test [5] (at 0.2 µM), -6.1%; in [5] (at 1 µM), -9.7%; in test [5] (at 5 µM), -27.5%.

With `CCC(=O)N1CCN(c2ccc(-n3c(=O)ccc4cnc5ccc(-c6cnc7ccccc7c6)cc5c43)cc2C(F)(F)F)CC1`, in test [6], the % of control came out at 35%.

Consider `Nc1cnc(N2CCc3cc(S(=O)(=O)Nc4c(F)cc(Cl)cc4F)cc(N4CCCC4=O)c32)nc1` [TP-020n], for which the % of control stood at 91% in test [7] and 100% in test [8].

For `COc1cc(N(C)c2ccnc3ccc(C(F)(F)F)cc23)cc(OC)c1OC`, the % binding in test [9] was determined as 78%.
